Measurements from patent US11365185B2, “Lysophosphatidic acid receptor 1 (LPAR1) inhibitor compounds” (Eli Lilly and Company, priority 2017, dated 2022).
Counter-ions that a name gives are not always drawn.

Legend:
LPAR1 [1] = target: T1, LPAR1 (Homo sapiens (Human), UniProt Q92633); test: LPAR1 Calcium Flux Assay; assay type: cell-based; conditions: U937 cells overexpressing human LPAR1, LPA-stimulated calcium, FLIPR
Protocol: LPAR1 Calcium Flux Assays
(§1) A cDNA encoding the human LPAR1 receptor is synthesized and cloned into pDNA3 expression plasmid. The plasmid is transfected in U937 cells using Lipofectamine 2000 (Invitrogen Corp., USA). Clones stably expressing human LPAR1 are selected using puromycin and identified as cells that show Ca-influx in response to LPA.
U937 cells overexpressing human LPAR1 are seeded at 100,000 cells per well in a 96-well fibronectin (10 ug/ml) coated plate in 60 μl of assay buffer (HBSS containing 20 mM HEPES and 0.2% BSA) and then incubated for 60 minutes. Then 50 μl of a calcium indicator dye (Fluo-4 NW, Molecular Probes) are added to each well and incubation continued for 30 minutes at 37° C. and then 30 minutes at room temperature. 50 μl of test compounds in 4% DMSO are added to the cells and incubation continued at room temperature for 40 minutes. Cells are the stimulated by the addition of 50 μl of 128 nM LPA and intracellular calcium is measured using the FLIPR TETRA (Molecular Devices). IC50 values are determined using “Genedata Screener” analysis tool.
Target sequence in this assay (Q92633 whole entry): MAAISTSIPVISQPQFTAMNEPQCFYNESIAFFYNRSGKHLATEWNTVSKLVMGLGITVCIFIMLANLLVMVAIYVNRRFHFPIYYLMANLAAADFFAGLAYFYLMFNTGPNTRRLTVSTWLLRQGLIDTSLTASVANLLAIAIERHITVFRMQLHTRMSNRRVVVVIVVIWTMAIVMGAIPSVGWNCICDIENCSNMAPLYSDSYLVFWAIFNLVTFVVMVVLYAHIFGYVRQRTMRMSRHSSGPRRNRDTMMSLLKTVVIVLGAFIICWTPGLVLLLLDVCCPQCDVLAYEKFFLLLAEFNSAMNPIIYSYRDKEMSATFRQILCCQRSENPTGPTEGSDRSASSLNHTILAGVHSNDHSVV

human LPAR3 = human LPAR3 (Homo sapiens (Human), UniProt Q9UBY5); test: LPAR3 Calcium Flux Assay; assay type: cell-based; conditions: U2OS cells overexpressing human LPAR3, LPA-stimulated calcium, FLIPR
Protocol: LPAR3 Calcium Flux Assays
as §1, with “LPAR3” for “LPAR1”, “U2OS” for “U937”, “neomycin” for “puromycin”
U2OS cells overexpressing human LPAR3 are seeded at 20,000-40,000 cells per well in a 96-well poly-D-lysine coated plate one day before the assay. Prior to the assay, the cells are washed once with assay buffer (HBSS containing 20 mM HEPES and 0.2% BSA) and then incubated in 50 μl of assay buffer for 60 minutes. Then 50 μl of a calcium indicator dye (Fluo-4 NW, Molecular Probes) are added to each well and incubation is continued for 30 minutes at 37° C. and then 30 minutes at room temperature. 50 μl of test compounds in 4% DMSO are added to the cells and incubation continued at room temperature for 40 minutes. Cells are stimulated by the addition of 50 μl of 128 nM LPA and intracellular calcium is measured using the FLIPR TETRA (Molecular Devices). IC50 values are determined using “Genedata Screener” analysis tool.

LPAR1 [2] = target: T1, LPAR1; test: LPAR1 Membrane Binding Assay; conditions: membrane containing LPAR1, radio labeled ligand, SPA
Protocol: LPAR1 Membrane Binding Assay
The ability of a compound to inhibit binding of a ligand (1-(4′-(4-(((benzyloxy)carbonyl)amino)-3-methylisoxazol-5-yl)-[1,1′-biphenyl]-4-yl)cyclopropane-1-carboxylic acid) to LPAR1 is assessed via a membrane binding assay. Membrane containing LPAR1 was purchased from Cerep (Cat. No. 290312RB). Prior to the assay, membrane is thawed and homogenized for 15 seconds. 50 μl of test compounds and 50 μl of radio labeled ligand are added to the 96-well plates and then 50 of μl membrane (50-400 ug/ml) are added. Next, 50 μl of SPA PVT WGA beads are added (1-5 mg/ml) and the plates are sealed and incubated at room temperate for 5 minutes. Radio activity is measured by Beta Counter and IC50 values are determined using “Genedata Screener” analysis tool.
Target sequence in this assay (Q92633 whole entry, species assumed): as the sequence (Q92633 whole entry) above

[3] = tested on: Human hepatic stellate cell line LX-2; test: Calcium Influx of Human Hepatic Stellate Cells (LX-2); assay type: cell-based; conditions: LX-2 cells, LPA-stimulated calcium influx
Protocol: Calcium Influx of Human Hepatic Stellate Cells (LX-2)
Human hepatic stellate cell line LX-2 is purchased from EMD Millpore. LX-2 cells are seeded at 20,000-40,000 cells per well in a 96-well poly-D-lysine coated plate one day before the assay. Prior to the assay, the cells are washed once with assay buffer (HBSS containing 20 mM HEPES and 0.2% BSA) and then incubated in 50 μl of assay buffer for 60 minutes. Then 50 μl of a calcium indicator dye (Fluo-4 NW, Molecular Probes) are added to each well and incubation is continued for 30 minutes at 37° C. and then 30 minutes at room temperature. 50 μl of test compounds in 4% DMSO are added to the cells and incubation is continued at room temperature for 40 minutes. Cells are stimulated by the addition of 50 μl of 128 nM LPA and intracellular calcium is measured using the FLIPR TETRA (Molecular Devices). IC50 values are determined using “Genedata Screener” analysis tool.

Sequence of human LPAR3 (Q9UBY5 whole entry): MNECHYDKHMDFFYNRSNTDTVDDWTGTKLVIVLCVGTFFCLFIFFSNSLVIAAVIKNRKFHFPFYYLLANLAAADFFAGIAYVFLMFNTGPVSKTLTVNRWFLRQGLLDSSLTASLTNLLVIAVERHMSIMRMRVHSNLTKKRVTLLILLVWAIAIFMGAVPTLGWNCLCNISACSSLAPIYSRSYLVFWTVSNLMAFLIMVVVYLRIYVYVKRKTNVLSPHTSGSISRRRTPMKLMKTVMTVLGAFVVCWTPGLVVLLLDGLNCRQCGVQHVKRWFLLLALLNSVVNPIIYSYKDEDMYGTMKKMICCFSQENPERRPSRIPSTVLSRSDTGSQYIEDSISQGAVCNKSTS

| SMILES | IC50 (LPAR1 [1]) [nM] | IC50 (human LPAR3) [nM] | Ki (LPAR1 [2]) [nM] | IC50 [3] [nM] |
| --- | --- | --- | --- | --- |
| Cn1ncc(-c2ncc(-c3ccc(C4(C(=O)O)CC4)cc3)cc2F)c1Nc1cncc(OC2CC2)n1 [Example 3, 1-[4-[6-[5-[[6-(cyclopropoxy)pyrazin-2-yl]amino]-1-methyl-pyrazol-4-yl]-5-fluoro-3-pyridyl]phenyl]cyclopropanecarboxylic Acid; Hydrochloride] | 8.61 | 2480 | 44.2 | 3.8 |
| COCc1cc(C2(C(=O)O)CC2)ccc1-c1ccc(-c2cnn(C)c2Nc2cncc(C(C)C)n2)nc1 [Example 14, 1-[4-[6-[5-[(6-isopropylpyrazin-2-yl)amino]-1-methyl-pyrazol-4-yl]-3-pyridyl]-3-(methoxymethyl)phenyl]cyclopropanecarboxylic Acid; Hydrochloride] | 45.8 | > 10000 | – | 13.2 |
| Cn1ncc(-c2ccc(-c3ccc(C4(C(=O)O)CC4)cc3)cn2)c1Nc1cncc(OC(C)(C)C)n1 [Example 1, 1-[4-[6-[5-[(6-tert-butoxypyrazin-2-yl)amino]-1-methyl-pyrazol-4-yl]-3-pyridyl]phenyl]cyclopropanecarboxylic Acid] | 74.4 | 1330 | – | 37.2 |
| CC(C)c1cncc(Nc2c(-c3ccc(-c4ccc(C5(C(=O)O)CC5)cc4CC#N)cn3)cnn2C)n1 [Example 15, 1-[3-(cyanomethyl)-4-[6-[5-[(6-isopropylpyrazin-2-yl)amino]-1-methyl-pyrazol-4-yl]-3-pyridyl]phenyl]cyclopropanecarboxylic Acid; Hydrochloride] | 42.9 | > 10000 | 94.8 | 19.4 |
| Cn1ncc(-c2ccc(-c3ccc(C4(C(=O)O)CC4)cc3)cn2)c1Nc1cncc(OC2CCC2)n1 [Example 2, 1-[4-[6-[5-[[6-(cyclobutoxy)pyrazin-2-yl]amino]-1-methyl-pyrazol-4-yl]-3-pyridyl]phenyl]cyclopropanecarboxylic Acid] | 17.2 | 327 | – | 9.22 |
| Cc1cc(-c2ccc(-c3cnn(C)c3Nc3cncc(OC(C)C)n3)nc2)ccc1C1(C(=O)O)CC1 [Example 7, 1-[4-[6-[5-[(6-isopropoxypyrazin-2-yl)amino]-1-methyl-pyrazol-4-yl]-3-pyridyl]-2-methyl-phenyl]cyclopropanecarboxylic Acid; Hydrochloride] | 27.1 | 1050 | 72.3 | 16.3 |
| Cn1ncc(-c2ccc(-c3ccc(C4(C(=O)O)CC4)cc3)cn2)c1Nc1cncc(OC2CC2)n1 [Example 10, 1-[4-[6-[5-[[6-(cyclopropoxy)pyrazin-2-yl]amino]-1-methyl-pyrazol-4-yl]-3-pyridyl]phenyl]cyclopropanecarboxylic Acid] | 9.86 | 4420 | 12.5 | 5.41 |
| Cn1ncc(-c2ncc(-c3ccc(C4(C(=O)O)CC4)cc3)cc2F)c1Nc1cncc(C(C)(C)F)n1 [Example 4, 1-[4-[5-fluoro-6-[5-[[6-(1-fluoro-1-methyl-ethyl)pyrazin-2-yl]amino]-1-methyl-pyrazol-4-yl]-3-pyridyl]phenyl]cyclopropanecarboxylic Acid Hydrochloride] | 16.7 | 1590 | 80.5 | 8.67 |
| CC(C)c1cncc(Nc2c(-c3ccc(-c4ccc(C5(C(=O)O)CC5)cn4)cn3)cnn2C)n1 [Example 24, 1-[6-[6-[5-[(6-isopropylpyrazin-2-yl)amino]-1-methyl-pyrazol-4-yl]-3-pyridyl]-3-pyridyl]cyclopropanecarboxylic Acid; Dihydrochloride] | 48 | 2760 | 46.2 | 15.3 |
| Cn1ncc(-c2ccc(-c3ccc(C4(C(=O)O)CC4)cc3)cn2)c1Nc1cncc(C(C)(C)F)n1 [Example 13, 1-[4-[6-[5-[[6-(1-fluoro-1-methyl-ethyl)pyrazin-2-yl]amino]-1-methyl-pyrazol-4-yl]-3-pyridyl]phenyl]cyclopropanecarboxylic Acid; Hydrochloride] | 44 | 804 | 28 | 10.5 |
| CC(C)Oc1cncc(Nc2c(-c3ncc(-c4ccc(C5(C(=O)O)CC5)cc4)cc3F)cnn2C)n1 [Example 11, 1-[4-[5-fluoro-6-[5-[(6-isopropoxypyrazin-2-yl)amino]-1-methyl-pyrazol-4-yl]-3-pyridyl]phenyl]cyclopropanecarboxylic Acid; Hydrochloride] | 11.1 | 495 | 34.6 | 10 |
| Cn1ncc(-c2ccc(-c3ccc(C4(C(=O)O)CC4)cc3)cn2)c1Nc1cncc(OC2CC(F)(F)C2)n1 [Example 5, 1-[4-[6-[5-[[6-(3,3-difluorocyclobutoxy)pyrazin-2-yl]amino]-1-methyl-pyrazol-4-yl]-3-pyridyl]phenyl]cyclopropanecarboxylic Acid] | 26.9 | 49.6 | 51.4 | 17.1 |
| Cn1ncc(-c2ccc(-c3ccc(C4(C(=O)O)CC4)c(C#N)c3)cn2)c1Nc1cncc(OC2CC2)n1 [Example 9, 1-[2-cyano-4-[6-[5-[[6-(cyclopropoxy)pyrazin-2-yl]amino]-1-methyl-pyrazol-4-yl]-3-pyridyl]phenyl]cyclopropanecarboxylic Acid; Hydrochloride] | 17.9 | > 10000 | – | 10.5 |
| CC(C)c1cncc(Nc2c(-c3cnc(-c4ccc(C5(C(=O)O)CC5)cc4)cn3)cnn2C)n1 [Example 19, 1-[4-[5-[5-[(6-isopropylpyrazin-2-yl)amino]-1-methyl-pyrazol-4-yl]pyrazin-2-yl]phenyl]cyclopropanecarboxylic Acid; Hydrochloride] | 88.1 | 2400 | – | 16.3 |
| Cn1ncc(-c2ccc(-c3ccc(C4(C(=O)O)CC4)cc3)cn2)c1Nc1cncc(C(C)(F)F)n1 [Example 12, 1-[4-[6-[5-[[6-(1,1-difluoroethyl)pyrazin-2-yl]amino]-1-methyl-pyrazol-4-yl]-3-pyridyl]phenyl]cyclopropanecarboxylic Acid; Hydrochloride] | 24.4 | 4280 | 40.9 | 14.4 |
| Cn1ncc(-c2ccc(-c3ccc(C4(C(=O)O)CC4)cc3)cc2)c1Nc1cncc(C2CC2)n1 [Example 25, Ammonium 1-[4-[4-[5-[(6-cyclopropylpyrazin-2-yl)amino]-1-methyl-pyrazol-4-yl]phenyl]phenyl]cyclopropanecarboxylate] | 52.9 | > 10000 | 30.8 | 24.2 |
| Cn1ncc(-c2ccc(-c3ccc(C4(C(=O)O)CC4)c(C(F)(F)F)c3)cn2)c1Nc1cncc(OC2CC2)n1 [Example 8, 1-[4-[6-[5-[[6-(cyclopropoxy)pyrazin-2-yl]amino]-1-methyl-pyrazol-4-yl]-3-pyridyl]-2-(trifluoromethyl)phenyl]cyclopropanecarboxylic Acid; Hydrochloride] | – | – | – | 7.13 |
